According to US20240270695A1, “COMPOUNDS, COMPOSITIONS AND METHODS OF TREATING DISORDERS” (Chengdu Anticancer Bioscience LTD, priority 2021, published 2024):

Key:
[1] = tested on: RPE-Neo or RPE-MYC or RPE-MYC expressing an EGFP-Histone 2B fusion protein; assay: MTT assays of cellular proliferation; format: cell-based; conditions: Homo sapiens, min. effective conc., read-out: Proliferative arrest (<50%)
[2] = tested on: RPE-Neo or RPE-MYC or RPE-MYC expressing an EGFP-Histone 2B fusion protein; assay: Phenotypic screening assay (arrest in mitosis, change in DNA content, cell death; GE IN-Cell Analyzer 2000); format: cell-based; conditions: Homo sapiens, compounds 20 nM to 20 μM, 24, 48 or 72 hours
[3] = read-out: Min. Effective conc. for Polyploidy (≥10%)
[4] = min. effective conc., read-out: Cell Death (>30%)
[5] = min. effective conc., read-out: Mitotic Arrest (≥10%)

Compound | minimal effective concentration [1] | minimal effective concentration [2, 3] | minimal effective concentration [2, 4] | minimal effective concentration [2, 5]
CNC(=O)C1=C(O)c2ccccc2N(Cc2ccncc2)C(=O)C1 [Example 74, 5-hydroxy-N-methyl-2-oxo-1-(pyridin-4-ylmethyl)-2,3-dihydro-1H-benzo[b]azepine-4-carboxamide] | 30 to 1000 µM | 30 to 1000 µM | 30 to 1000 µM | 30 to 1000 µM
CNC(=O)C1=C(O)c2ccccc2N(Cc2ccccc2OC)C(=O)C1 [Example 93, 5-hydroxy-1-(2-methoxybenzyl)-N-methyl-2-oxo-2,3-dihydro-1H-benzo[b]azepine-4-carboxamide] | 10 to 30 µM | 10 to 30 µM | 10 to 30 µM | 10 to 30 µM
CNC(=O)C1=C(O)c2ccccc2N(Cc2ccsc2)C(=O)C1 [Example 71, 5-hydroxy-N-methyl-2-oxo-1-(thiophen-3-ylmethyl)-2,3-dihydro-1H-benzo[b]azepine-4-carboxamide] | 30 to 1000 µM | 30 to 1000 µM | 30 to 1000 µM | 30 to 1000 µM
CNC(=O)C1=C(O)c2ccccc2N(Cc2ccc(Cl)c(F)c2)C(=O)C1 [Example 124, 1-(4-chloro-3-fluorobenzyl)-5-hydroxy-N-methyl-2-oxo-2,3-dihydro-1H-benzo[b]azepine-4-carboxamide] | 1 to 10 µM | 1 to 10 µM | 1 to 10 µM | 1 to 10 µM
CNC(=O)C1=C(O)c2ccccc2N(Cc2cc(F)cc(F)c2)C(=O)C1 [Example 104, 1-(3,5-difluorobenzyl)-5-hydroxy-N-methyl-2-oxo-2,3-dihydro-1H-benzo[b]azepine-4-carboxamide] | 30 to 1000 µM | 30 to 1000 µM | 30 to 1000 µM | 30 to 1000 µM
CNC(=O)C1CC(=O)N(Cc2ccc(OC(F)F)cc2)c2ccccc2C1=O (centres unmarked) [Example 94, 1-(4-(difluoromethoxy)benzyl)-5-hydroxy-N-methyl-2-oxo-2,3-dihydro-1H-benzo[b]azepine-4-carboxamide] | 30 to 1000 µM | 30 to 1000 µM | 30 to 1000 µM | 30 to 1000 µM
CNC(=O)C1=C(O)c2ccccc2N(Cc2ccc(C(C)=O)cc2)C(=O)C1 [Example 90, 1-(4-acetylbenzyl)-5-hydroxy-N-methyl-2-oxo-2,3-dihydro-1H-benzo[b]azepine-4-carboxamide] | 30 to 1000 µM | 30 to 1000 µM | 30 to 1000 µM | 30 to 1000 µM
CNC(=O)C1=C(O)c2ccccc2N(CCc2ccc(OC)cc2)C(=O)C1 [Example 96, 5-hydroxy-1-(4-methoxyphenethyl)-N-methyl-2-oxo-2,3-dihydro-1H-benzo[b]azepine-4-carboxamide] | 30 to 1000 µM | 30 to 1000 µM | 30 to 1000 µM | 30 to 1000 µM
CNC(=O)C1=C(O)c2ccccc2N(Cc2cc(F)ccc2F)C(=O)C1 [Example 106, 1-(2,5-difluorobenzyl)-5-hydroxy-N-methyl-2-oxo-2,3-dihydro-1H-benzo[b]azepine-4-carboxamide] | 30 to 1000 µM | 30 to 1000 µM | 30 to 1000 µM | 30 to 1000 µM
CNC(=O)C1=C(O)c2ccccc2N(Cc2ccc(Cl)cc2)C(=O)C1 [Example 83, 1-(4-chlorobenzyl)-5-hydroxy-N-methyl-2-oxo-2,3-dihydro-1H-benzo[b]azepine-4-carboxamide] | 10 to 30 µM | 10 to 30 µM | 10 to 30 µM | 10 to 30 µM
CNC(=O)C1=C(O)c2ccccc2N(Cc2ccc(C(C)C)cc2)C(=O)C1 [Example 87, 5-hydroxy-1-(4-isopropylbenzyl)-N-methyl-2-oxo-2,3-dihydro-1H-benzo[b]azepine-4-carboxamide] | 30 to 1000 µM | 30 to 1000 µM | 30 to 1000 µM | 30 to 1000 µM
